Measured values published in patent US20260373119A1, “NOVEL COMPOUND, AND COMPOSITION FOR PREVENTING OR TREATING HER2-POSITIVE CANCER, COMPRISING SAME” (EWHA UNIVERSITY - INDUSTRY COLLABORATION FOUNDATION, priority 2022, published 2026).

Tests used:
[1] = system: c-PARP, c-caspase 7, bcl-2; experiment: pro- and anti-apoptotic marker levels; type: cell-based
Description: For western blot analysis, cells were seeded in a 6-well plate and lysed in 1×RIPA lysis buffer (Cell Signaling, USA) containing 1% 0.1 M [COMPOUND LEFT OUT] and 1% 100× protease inhibitor cocktail solution (Genedepot, USA). Total protein levels were standardized using the Pierce™ BCA Protein Assay Kit (Thermo Fisher Scientific, USA) and a microplate reader (Tecan Group Ltd., Switzerland). A total of 20 μg of protein was loaded onto a 10-15% SDS-PAGE acrylamide gel and transferred to a 0.2 μm PVDF membrane (Pall Life Science, USA). The membrane was blocked with 5% skim milk or 5% BSA, and the membrane was cultured with primary antibodies (purchased from Thermo Fisher, Cell Signaling, Santa Cruz, Novus, or MBL) at room temperature for 3 hours or overnight at 4 °C. The blot was washed three times with Tris-buffered saline containing 0.1% Tween20 (1×TBST) and incubated with an HRP-conjugated secondary antibody (GeneTex, USA). Protein bands were detected using ECL solution reagents (GE Healthcare, USA) and the LAS-3000 imaging system (Fuji Photo Film Co., Ltd., Japan), and captured images were analyzed using Multi-Gauge software (Fuji Photo Film Co. Ltd.). […]
Specifically, 5×10^5 NCI-N87 cells were seeded in 60 mm dishes and cultured until they reached 70-80% confluence. […] Cell cycle analysis was performed using a fluorescence-activated cell sorting (FACS) device (BD Biosciences, USA).

[2] = target: EGFR (Homo sapiens, UniProt P00533); experiment: kinase profiling, EGFR; type: biochemical; settings: read-out: In vitro kinase inhibitory activity (%)
Description: Kinase inhibitory activity of the candidate compound at 10 μM and 25 μM was assessed using Eurofins Kinase Profiling Services. Inhibitory effects on c-RAF, EGFR, ErbB2, ErbB4, and PI3 kinase were analyzed according to the Kinase Profiler Service Assay protocol.

[3] = system: NCI-N87 (HER2-positive gastric cancer cell line); experiment: antiproliferative effect, NCI-N87; type: cell-based; settings: 72 hours
Description: The antiproliferative effects were measured after treating Compounds 1 to 22 for 72 hours on HCT15 (HER2-positive colorectal cancer cell line), NCI-N87 (HER2-positive gastric cancer cell line), T47D (HER2-negative breast cancer cell line), and HeLa (HER2-negative cervical cancer cell line). As a result, strong antiproliferative effects were generally observed in the NCI-N87 cell line (Table 2).
The antiproliferative effects of the candidate compound, resulting from HER2 inhibition, were evaluated. Specifically, to confirm the anticancer effects of the candidate compound, cancer cells were seeded at a density of 10^4 cells/well in a 96-well cell culture plate for 20 hours. The cells were starved in serum-free media for 4 hours, followed by replacement with media containing the compound at specified concentrations. The cells were then incubated for 72 hours under conditions of 5% CO2 at 37 °C. Cell viability was determined by adding 5 μL of EZ-CytoX to each well and measuring absorbance at 450 nm. The measurements were performed using an ELISA Microplate Reader (VersaMax, Molecular Devices).

[4] = system: NCI-N87 xenograft; experiment: NCI-N87 xenograft, tumor growth; type: in vivo, mice; settings: 4 mg/kg, intravenous, six times at 3-day intervals
Description: Xenograft mice were generated to evaluate the anticancer effects of the candidate compound. NCI-N87 and JIMT-1 cells (5×10^6 cells), dissolved in 100 μL of 1× phosphate-buffered saline (PBS), were subcutaneously injected into the right flanks of 5-week-old female athymic nude mice (Envigo, USA) or 4-week-old female NOD-SCID mice (Koatech, South Korea). When the tumors reached a volume of 90-100 mm^3, the mice were randomized into designated groups. For the NCI-N87 xenograft, intravenous administration was performed six times at 3-day intervals. For the JIMT-1 xenograft, intraperitoneal administration was performed eight times at 3-day intervals. […] Tumor size changes were monitored until the mean tumor size in the control group reached 2,000-2,500 mm^3. On day 28 for the NCI-N87 xenograft and day 46 for the JIMT-1 xenograft, the mice were sacrificed, and tumors were excised to determine relative tumor sizes. Tumor length (L) and width (W) were measured with calipers, and tumor volume was calculated using the formula: […]

EGFR, sequence (P00533 669-1210 limits assumed): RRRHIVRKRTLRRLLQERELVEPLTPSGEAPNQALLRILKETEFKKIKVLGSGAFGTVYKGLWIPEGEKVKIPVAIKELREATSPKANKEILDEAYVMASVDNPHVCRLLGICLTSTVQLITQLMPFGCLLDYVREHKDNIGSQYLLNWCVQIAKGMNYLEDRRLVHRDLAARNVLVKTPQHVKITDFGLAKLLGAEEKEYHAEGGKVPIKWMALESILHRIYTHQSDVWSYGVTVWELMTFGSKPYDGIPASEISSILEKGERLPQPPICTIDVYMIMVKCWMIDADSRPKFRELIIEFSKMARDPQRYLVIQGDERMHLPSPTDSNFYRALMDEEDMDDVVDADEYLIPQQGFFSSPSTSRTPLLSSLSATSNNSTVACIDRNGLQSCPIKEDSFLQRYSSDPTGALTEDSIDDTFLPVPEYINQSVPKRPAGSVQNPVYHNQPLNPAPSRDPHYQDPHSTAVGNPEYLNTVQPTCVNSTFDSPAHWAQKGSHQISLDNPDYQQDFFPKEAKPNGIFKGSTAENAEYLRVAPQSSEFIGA

SMILES: CC(=O)N1N=C(c2cccc(O)c2)CC1c1ccc(Cl)cc1 (stereo not shown) [Compound 15, 1-[5-(4-Chlorophenyl)-3-(3-hydroxyphenyl)-4,5-dihydropyrazol-1-yl]-ethanone]
- anti-apoptotic marker bcl-2 [1]: reduced the levels of the anti-apoptotic marker bcl-2
- pro-apoptotic markers c-PARP and c-caspase 7 [1]: induced an increase in the pro-apoptotic markers c-PARP and c-caspase 7
- inhibition at 10 µM ([2]; 10 μM): 0%
- inhibition at 25 µM ([2]; 25 μM): 0%
- growth of NCI-N87 cells [3]: significantly inhibited the growth of NCI-N87 cells
- IC50 ([3]; Homo sapiens, NCI-N87, HER2-positive): 1.56 ± 0.14 µM
- tumor volume / growth [4]: tumor volume was significantly reduced, and tumor growth was delayed
